# Columns and labels:
# COX-1 ovine enzyme = biological target: T1, COX-1 ovine enzyme (Ovis aries, UniProt P05979); experiment: Fluorometric COX-1 inhibitor screening kit; assay type: biochemical; details: for inhibition at 100 µM: at 100 µM concentration; for IC50: fluorometric kit
# T1 construct: purchased Abcam ab204698
# T1 sequence (P05979 25-600): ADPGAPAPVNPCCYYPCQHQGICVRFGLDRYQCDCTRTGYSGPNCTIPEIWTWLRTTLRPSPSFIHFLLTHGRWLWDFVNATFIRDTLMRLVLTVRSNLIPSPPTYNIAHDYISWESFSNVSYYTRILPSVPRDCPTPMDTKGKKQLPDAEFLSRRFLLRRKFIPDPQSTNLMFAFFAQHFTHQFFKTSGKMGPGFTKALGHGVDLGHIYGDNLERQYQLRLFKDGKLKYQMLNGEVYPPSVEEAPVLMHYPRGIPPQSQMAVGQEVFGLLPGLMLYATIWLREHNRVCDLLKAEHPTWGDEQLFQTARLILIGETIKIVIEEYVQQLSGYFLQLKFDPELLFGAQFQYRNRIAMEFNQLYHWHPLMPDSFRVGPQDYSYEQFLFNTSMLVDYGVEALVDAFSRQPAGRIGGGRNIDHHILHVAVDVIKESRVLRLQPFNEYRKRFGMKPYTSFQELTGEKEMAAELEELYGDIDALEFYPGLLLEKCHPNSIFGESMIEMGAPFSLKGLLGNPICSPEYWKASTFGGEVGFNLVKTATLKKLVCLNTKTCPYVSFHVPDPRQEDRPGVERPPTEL
# Procedure: The COX-1 and COX-2 inhibitory activates of the synthesized compounds were tested using fluorometric COX-1 (Catalog Number: ab204698) and COX-2 (Catalog Number: ab283401) inhibitor screening kits (Abcam, United Kingdom). These assays are based on the fluorometric detection of Prostaglandin G2, generated by the COX enzyme. The experiment was conducted according to the manufacturer’s instructions. Each assay consists of a COX Assay Buffer, COX Probe (in DMSO), COX Cofactor (in DMSO), arachidonic acid and NaOH. The COX-1 inhibitor screening kit contains COX-1 ovine enzyme and COX-1 inhibitor SC560 (dissolved in DMSO), while the COX-2 inhibitor screening kit contains COX-2 human recombinant enzyme and COX-2 inhibitor Celecoxib (dissolved in DMSO). The tested compounds were dissolved in DMSO and further diluted five times with the COX Assay Buffer. The Inhibitor Control (IC) was prepared by adding 2 µL of COX-1/COX-2 inhibitor and 8 µL of COX Assay Buffer into assigned wells, while the Solvent Control (SC) was prepared by adding 2 µL of DMSO and 8 µL of COX Assay Buffer into assigned wells and the Sample (S) and Enzyme Control (EC) were prepared by adding 10 µL of diluted tested compounds or COX Assay Buffer into assigned wells. The Reaction Master Mix (COX Assay Buffer, COX Probe, Diluted COX Cofactor and COX-1/COX-2 Enzyme) was prepared according to instructions and 80 µL of the Reaction Master Mix was added into each well. Meanwhile, a diluted arachidonic acid/NaOH solution was prepared and 10 µL was added into each well using a multi-channel pipette to initiate all the reactions at the same time. The fluorescence values (Ex/Em = 535/587 nm) of the samples were kinetically measured at 25 °C for 5–10 min. The EC, SC, IC and tested compounds at all concentrations were analyzed in triplicates. Two points (T1 and T2) in the linear range of the plot were chosen and corresponding fluorescence values (RFU1 and RFU2) were obtained. The slope for all samples was calculated by dividing ΔRFU (RFU2-RFU1) by time Δt (T2−T1). The percentage of inhibition was calculated as follows: % Relative Inhibition=Slope of EC−Slope of S/Slope of EC∗100
# Fluorescence measurements were performed on a BioTek Synergy LX multi-mode reader (Winooski, VT, USA).
inhibition at 100 µM (COX-1 ovine enzyme) [%],IC50 (COX-1 ovine enzyme) [µM],melting point [°C],Structure (SMILES)
< 50,> 100,–,"COc1ccc2c(c1)c(CNC(=O)NO)c(C)n2C(=O)c1ccc(Cl)cc1 [Compound 1, N’-hydroxy-N-[(1-(4-chlorobenzoyl)-5-methoxy-2-methyl-3-indolyl)methyl]urea]"
< 50,> 100,–,CC(NC(=O)NO)c1ccc(-c2ccccc2)c(F)c1 (stereo not shown) [Compound 2]
< 50,> 100,–,"O=C(NO)NCc1ccccc1Nc1c(Cl)cccc1Cl [Compound 3, N’-hydroxy-N-[(2-(2,6-dichloroanilino)phenyl)methyl]urea]"
–,–,117 to 119,"COC(=O)C(Cc1c[nH]cn1)NC(=O)c1cc(C(C)(C)C)c(O)c(C(C)(C)C)c1 (stereo not shown) [Compound 4, 2-(3,5-di-tert-butyl-4-hydroxy-benzoylamino)-3-(1H-imidazol-4-yl)-propionic acid methyl ester]"
< 50,> 100,130 to 132,"COC(=O)CNC(=O)c1cc(C(C)(C)C)c(O)c(C(C)(C)C)c1 [Compound 5, (3,5-di-tert-butyl-4-hydroxy-benzoylamino)-acetic acid methyl ester]"
< 50,> 100,182 to 183.5,"C=CCNC(=O)c1cc(C(C)(C)C)c(O)c(C(C)(C)C)c1 [Compound 6, N-allyl-3,5-di-tert-butyl-4-hydroxy-benzamide]"
–,–,178.5 to 180,"C#CCNC(=O)c1cc(C(C)(C)C)c(O)c(C(C)(C)C)c1 [Compound 7, 3,5-di-tert-butyl-4-hydroxy-N-prop-2-ynyl-benzamide]"
–,–,71.5 to 72.5,"CCOc1ccccc1NC(=O)N(C)C [Compound 8, 3-(2-ethoxy-phenyl)-1,1-dimethyl-urea]"
–,–,158 to 159.5,"CN(C)C(=O)Nc1ccccc1C(=O)O [Compound 9, 2-(3,3-dimethyl-ureido)-benzoic acid]"
–,–,178 to 181,"CCOc1ccccc1NC(=O)Nc1ccc([N+](=O)[O-])cc1 [Compound 10, 1-(2-ethoxy-phenyl)-3-(4-nitro-phenyl)-urea]"
< 50,> 100,–,CC(=O)N(O)C(C)c1ccc(CC(C)C)cc1 (stereo not shown) [Compound 11]
< 50,> 100,–,"COc1ccc2cc(C(C)N(O)C(C)=O)ccc2c1 (stereo not shown) [Compound 12, N-hydroxy-N-[1-(6-methoxy-naphthalen-2-yl)-ethyl]-acetamide]"
–,–,244.5 to 246.5,"CC(C)(C)c1cc(C=C2SC(=S)N(N)C2=O)cc(C(C)(C)C)c1O [Compound 13, 3-amino-5-(3,5-di-tert-butyl-4-hydroxy-benzylidene)-2-thioxo-thiazolidin-4-one]"

# Reference: PMC10142505, “Synthesis, Evaluation of Enzyme Inhibition and Redox Properties of Potential Dual COX-2 and 5-LOX Inhibitors” (Pharmaceuticals, 2023)
